Literature values as cited in publication PMC10747602, “Dose Response, Dosimetric, and Metabolic Evaluations of Replacement PFAS Perfluoro-(2,5,8-trimethyl-3,6,9-trioxadodecanoic) Acid (HFPO-TeA)” (Toxics, 2023).
Where two headings read alike, the source gives them in different places.

Tests used:
[1] = male mice, 2.5 mg/kg/day orally for 28 days; cited from earlier work
[2] = parameters: method as in PMID 18661093; details: male rats, 5 mg/kg/day orally for 28 days; cited from earlier work
[3] = parameters: method as in PMID 21948869, PMID 36309054; details: cited from earlier work

O=C(O)C(F)(F)C(F)(F)C(F)(F)C(F)(F)C(F)(F)C(F)(F)C(F)(F)F [PFOA, perfluorooctanoic acid]
Kp [1]: 1.54 | Kp [2]: 5.88 | underestimation of Css values by previous IVIVE evaluations [3]: > 100 ×
